Measurements published in patent US20230348424A1, “HETEROCYCLIC COMPOUNDS AND METHODS OF USE” (Schrödinger, Inc., priority 2022, published 2023).

Target: SOS1:KRAS (G12C) interaction (Homo sapiens (Human), UniProt Q07889)
Assay: SOS1 KRas(G12C) FRET Assay
Type: binding
Settings: 0.5 nM His10-SOS1 (res. 564-1049), 2.5 nM GST-KRAS G12C (res. 1-169), 2 hrs at RT
Outline: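 GST-KRAS G12C (res. 1-169) at 2.5 nM and His10-SOS1 (res. 564-1049) at 0.5 nM, final, in PBS with 0.1% BSA, 5 mM MgCl2, 100 mM KF, 5 mM DTT and 0.5% DMSO. After 2 h at RT, FRET read at 665/615 nm and normalized to DMSO and no-SOS1 controls. IC50 by non-linear regression.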

SOS1:KRAS (G12C) interaction, sequence (Q07889 564-1049, stated change not applied): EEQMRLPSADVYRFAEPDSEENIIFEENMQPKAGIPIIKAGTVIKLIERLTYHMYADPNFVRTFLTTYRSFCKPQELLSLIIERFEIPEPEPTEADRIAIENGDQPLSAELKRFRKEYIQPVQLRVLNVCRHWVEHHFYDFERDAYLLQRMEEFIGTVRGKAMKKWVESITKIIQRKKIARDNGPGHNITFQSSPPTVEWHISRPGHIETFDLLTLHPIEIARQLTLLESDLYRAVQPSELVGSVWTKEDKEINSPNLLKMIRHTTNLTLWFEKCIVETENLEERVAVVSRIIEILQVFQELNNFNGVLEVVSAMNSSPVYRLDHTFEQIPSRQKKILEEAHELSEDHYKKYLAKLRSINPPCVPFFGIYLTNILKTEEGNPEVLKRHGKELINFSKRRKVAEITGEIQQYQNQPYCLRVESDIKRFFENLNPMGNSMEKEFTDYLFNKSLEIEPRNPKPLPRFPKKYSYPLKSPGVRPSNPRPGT

Row | Structure (SMILES) | IC50 [nM]
1 | CC(NC(=O)c1cn(C2(C(F)F)CC2)c(=O)cc1N[C@H]1[C@@H]2CN(C)C[C@@H]21)c1cccc(C(F)(F)c2cocn2)c1F (stereo partly drawn) [Example 176, N-(1-(3-(difluoro(oxazol-4-yl)methyl)-2-fluorophenyl)ethyl)-1-(1-(difluoromethyl)cyclopropyl)-4-(((1R,5S,6s)-3-methyl-3-azabicyclo[3.1.0]hexan-6-yl)amino)-6-oxo-1,6-dihydropyridine-3-carboxamide] | 109
2 | C[C@@H](NC(=O)c1cn(C23CC(C2)C3)c(=O)cc1N[C@H]1[C@@H]2CN(C)C[C@@H]21)c1cccc(C#N)c1F [Example 179, 1-(bicyclo[1.1.1]pentan-1-yl)-N-((R)-1-(3-cyano-2-fluorophenyl)ethyl)-4-(((1R,5S,6s)-3-methyl-3-azabicyclo[3.1.0]hexan-6-yl)amino)-6-oxo-1,6-dihydropyridine-3-carboxamide] | 70.7
3 | C[C@@H](NC(=O)c1cn(C23CC(C2)C3)c(=O)cc1N[C@H]1[C@@H]2CN(C)C[C@@H]21)c1cccc(OC(F)F)c1Cl [Example 180, 1-(bicyclo[1.1.1]pentan-1-yl)-N-((R)-1-(2-chloro-3-(difluoromethoxy)phenyl)ethyl)-4-(((1R,5S,6s)-3-methyl-3-azabicyclo[3.1.0]hexan-6-yl)amino)-6-oxo-1,6-dihydropyridine-3-carboxamide] | 113
4 | C[C@@H](NC(=O)c1cn(C2(C(F)F)CC2)c(=O)cc1N[C@H]1CN2CCC1(F)CC2)c1cccc(C(F)F)c1F [Example 186, N-((R)-1-(3-(difluoromethyl)-2-fluorophenyl)ethyl)-1-(1-(difluoromethyl)cyclopropyl)-4-(((S)-4-fluoroquinuclidin-3-yl)amino)-6-oxo-1,6-dihydropyridine-3-carboxamide] | 27.5
5 | C[C@@H](NC(=O)c1cn(C2(C(F)F)CC2)c(=O)cc1N[C@@H]1CN2CCC1(F)CC2)c1cccc(C(F)F)c1F [Example 187, N-((R)-1-(3-(difluoromethyl)-2-fluorophenyl)ethyl)-1-(1-(difluoromethyl)cyclopropyl)-4-(((R)-4-fluoroquinuclidin-3-yl)amino)-6-oxo-1,6-dihydropyridine-3-carboxamide] | 22.3
6 | C[C@@H](NC(=O)c1cn(C2(C(F)F)CC2)c(=O)cc1NC[C@@H]1CCCN1C)c1cccc(C(F)F)c1F [Example 188, N-((R)-1-(3-(difluoromethyl)-2-fluorophenyl)ethyl)-1-(1-(difluoromethyl)cyclopropyl)-4-((((S)-1-methylpyrrolidin-2-yl)methyl)amino)-6-oxo-1,6-dihydropyridine-3-carboxamide] | 41.3
7 | C[C@@H](NC(=O)c1cn(C23COC(C2)C3)c(=O)cc1N[C@H]1[C@@H]2CN(C)C[C@@H]21)c1cccc(C(F)F)c1F [Example 192] | 12.9
8 | C[C@@H](NC(=O)c1cn(C23CC(C2)C3)c(=O)cc1N[C@H]1[C@@H]2CN(C)C[C@@H]21)c1cccc(C(F)(F)F)c1F [Example 205, 1-(bicyclo[1.1.1]pentan-1-yl)-N-((R)-1-(2-fluoro-3-(trifluoromethyl)phenyl)ethyl)-4-(((1R,5S,6s)-3-methyl-3-azabicyclo[3.1.0]hexan-6-yl)amino)-6-oxo-1,6-dihydropyridine-3-carboxamide] | 26.6
9 | C[C@@H](NC(=O)c1cn(C2C(F)(F)C23CC3)c(=O)cc1N[C@H]1[C@@H]2CN(C)C[C@@H]21)c1cccc(C(F)F)c1F (stereo partly drawn) [Example 206, N-((R)-1-(3-(difluoromethyl)-2-fluorophenyl)ethyl)-1-(2,2-difluorospiro[2.2]pentan-1-yl)-4-(((1R,5S,6s)-3-methyl-3-azabicyclo[3.1.0]hexan-6-yl)amino)-6-oxo-1,6-dihydropyridine-3-carboxamide] | 137
10 | C[C@@H](NC(=O)c1cn(C2CCC2)c(=O)cc1N[C@H]1[C@@H]2CN(C)C[C@@H]21)c1cccc(C(F)(F)F)c1F [Example 207, 1-cyclobutyl-N-((R)-1-(2-fluoro-3-(trifluoromethyl)phenyl)ethyl)-4-(((1R,5S,6s)-3-methyl-3-azabicyclo[3.1.0]hexan-6-yl)amino)-6-oxo-1,6-dihydropyridine-3-carboxamide] | 9.3
11 | C[C@@H](NC(=O)c1cn([C@@H]2CCC2(F)F)c(=O)cc1N[C@@H]1[C@@H]2CC[C@H]1CN(C)C2)c1cccc(C(F)F)c1F [Example 212, 1-((R)-2,2-difluorocyclobutyl)-N-((R)-1-(3-(difluoromethyl)-2-fluorophenyl)ethyl)-4-(((1R,5S,8s)-3-methyl-3-azabicyclo[3.2.1]octan-8-yl)amino)-6-oxo-1,6-dihydropyridine-3-carboxamide] | 38.2

More lines, in order of falling IC50, values ahead:

Row | IC50 [nM] | Structure (SMILES)
12 | 315 | C[C@@H](NC(=O)c1cn(C23CC(C2)C3)c(=O)cc1N)c1cccc(C(F)F)c1F [Example 190, (R)-4-amino-1-(bicyclo[1.1.1]pentan-1-yl)-N-(1-(3-(difluoromethyl)-2-fluorophenyl)ethyl)-6-oxo-1,6-dihydropyridine-3-carboxamide]
13 | 149 | C[C@@H](NC(=O)c1cn([C@@H]2CCC2(F)F)c(=O)cc1N[C@H]1[C@@H]2CC[C@H]1CN(C)C2)c1cccc(C(F)F)c1F [Example 213, 1-((R)-2,2-difluorocyclobutyl)-N-((R)-1-(3-(difluoromethyl)-2-fluorophenyl)ethyl)-4-(((1R,5S,8r)-3-methyl-3-azabicyclo[3.2.1]octan-8-yl)amino)-6-oxo-1,6-dihydropyridine-3-carboxamide]
14 | 140 | CC(Nc1cc(=O)n(C2(C(F)F)CC2)cc1C(=O)N[C@H](C)c1cccc(C(F)F)c1F)C1(CO)CC1 (stereo partly drawn) [Example 191, N-((R)-1-(3-(difluoromethyl)-2-fluorophenyl)ethyl)-1-(1-(difluoromethyl)cyclopropyl)-4-((1-(1-(hydroxymethyl)cyclopropyl)ethyl)amino)-6-oxo-1,6-dihydropyridine-3-carboxamide]
15 | 79.8 | Cc1c(C#N)cccc1[C@@H](C)NC(=O)c1cn(C23CC(C2)C3)c(=O)cc1N[C@H]1[C@@H]2CN(C)C[C@@H]21 [Example 181, 1-(bicyclo[1.1.1]pentan-1-yl)-N-((R)-1-(3-cyano-2-methylphenyl)ethyl)-4-(((1R,5S,6s)-3-methyl-3-azabicyclo[3.1.0]hexan-6-yl)amino)-6-oxo-1,6-dihydropyridine-3-carboxamide]
16 | 63.4 | C[C@@H](NC(=O)c1cn(C23CC(C2)C3)c(=O)cc1N[C@H]1[C@@H]2C[C@H]1CN(C)C2)c1cccc(C(F)F)c1F [Example 209, 1-(bicyclo[1.1.1]pentan-1-yl)-N-((R)-1-(3-(difluoromethyl)-2-fluorophenyl)ethyl)-4-(((1R,5S,6r)-3-methyl-3-azabicyclo[3.1.1]heptan-6-yl)amino)-6-oxo-1,6-dihydropyridine-3-carboxamide]
17 | 33.8 | C[C@@H](NC(=O)c1cn(C2(C(F)F)CC2)c(=O)cc1NCC12CC(O)(C1)C2)c1cccc(C(F)F)c1F [Example 182, (R)-N-(1-(3-(difluoromethyl)-2-fluorophenyl)ethyl)-1-(1-(difluoromethyl)cyclopropyl)-4-(((3-hydroxybicyclo[1.1.1]pentan-1-yl)methyl)amino)-6-oxo-1,6-dihydropyridine-3-carboxamide]
18 | 30.7 | C[C@@H](NC(=O)c1cn(C2(C(F)F)CC2)c(=O)cc1NCC1(F)CN(C)C1)c1cccc(C(F)F)c1F [Example 185, (R)-N-(1-(3-(difluoromethyl)-2-fluorophenyl)ethyl)-1-(1-(difluoromethyl)cyclopropyl)-4-(((3-fluoro-1-methylazetidin-3-yl)methyl)amino)-6-oxo-1,6-dihydropyridine-3-carboxamide]
19 | 29.4 | C[C@@H](NC(=O)c1cn([C@H]2CCC2(F)F)c(=O)cc1N[C@@H]1[C@@H]2CC[C@H]1CN(C)C2)c1cccc(C(F)F)c1F [Example 211, 1-((S)-2,2-difluorocyclobutyl)-N-((R)-1-(3-(difluoromethyl)-2-fluorophenyl)ethyl)-4-(((1R,5S,8s)-3-methyl-3-azabicyclo[3.2.1]octan-8-yl)amino)-6-oxo-1,6-dihydropyridine-3-carboxamide]
20 | 16.3 | C[C@@H](NC(=O)c1cn(C23CC(C2)C3)c(=O)cc1NC12CC(N)(C1)C2)c1cccc(C(F)F)c1F [Example 189, (R)-4-((3-aminobicyclo[1.1.1]pentan-1-yl)amino)-1-(bicyclo[1.1.1]pentan-1-yl)-N-(1-(3-(difluoromethyl)-2-fluorophenyl)ethyl)-6-oxo-1,6-dihydropyridine-3-carboxamide]
21 | 13 | C[C@H](NC(=O)c1cn(C2(C(F)F)CC2)c(=O)cc1N[C@H]1[C@@H]2CN(C)C[C@@H]21)c1cccc(C(F)(F)c2ccncc2)c1F [Example 175, N-((S)-1-(3-(difluoro(pyridin-4-yl)methyl)-2-fluorophenyl)ethyl)-1-(1-(difluoromethyl)cyclopropyl)-4-(((1R,5S,6s)-3-methyl-3-azabicyclo[3.1.0]hexan-6-yl)amino)-6-oxo-1,6-dihydropyridine-3-carboxamide]
22 | 13 | C[C@@H](NC(=O)c1cn(C23CC(C2)C3)c(=O)cc1N[C@@H]1[C@@H]2C[C@H]1CN(C)C2)c1cccc(C(F)F)c1F [Example 208, 1-(bicyclo[1.1.1]pentan-1-yl)-N-((R)-1-(3-(difluoromethyl)-2-fluorophenyl)ethyl)-4-(((1R,5S,6s)-3-methyl-3-azabicyclo[3.1.1]heptan-6-yl)amino)-6-oxo-1,6-dihydropyridine-3-carboxamide]
23 | 4.3 | C[C@@H](NC(=O)c1cn([C@H]2CCC2(F)F)c(=O)cc1N[C@H]1[C@@H]2CC[C@H]1CN(C)C2)c1cccc(C(F)F)c1F [Example 210, 1-((S)-2,2-difluorocyclobutyl)-N-((R)-1-(3-(difluoromethyl)-2-fluorophenyl)ethyl)-4-(((1R,5S,8r)-3-methyl-3-azabicyclo[3.2.1]octan-8-yl)amino)-6-oxo-1,6-dihydropyridine-3-carboxamide]
